Data: patent US20130030025A1, “USE OF POTASSIUM CHANNEL BLOCKERS TO TREAT CEREBRAL PALSY” (priority 2011, published 2013)
Several values for one entry are separate records, joined by “and”; a condition that tells them apart may be missing. Identical values can stand only once. Entries after “also recorded” stand apart in the source; their conditions may differ.

Tests used:
[1] = system: middle cerebral artery occlusion (MCAO) in rats; assay: Forelimb placing test after MCAO; assay type: in vivo, Sprague Dawley rats; set-up: Forelimb Placing Total Score, Mean: scale not given here; details: for Forelimb Placing Total Score, Mean: group mean N=15; for Forelimb Placing Total Score: individual animals, 0=normal, 12=maximally impaired
Description: (§1) 4-AP was evaluated for its ability to promote functional sensorimotor improvement following ischemic stroke in rats with stable motor deficits at times remote from their ischemic events. The animal model mimics the conditions in human ischemic stroke and is produced by middle cerebral artery occlusion (MCAO), which results in extensive infarction in cerebral cortex and striatum, including the cortical spinal tract (white matter). In particular, the MCAO model in Sprague Dawley rats that was utilized in the experiments presented below mimics the conditions in human ischemic stroke. In this experiment, Sprague Dawley rats were anesthetized, subjected to a surgery resulting in middle cerebral artery occlusion (MCAO), treated with and without 4-aminopyridine and behavioral assessments were performed as described below. Surgical Procedure: A small focal stroke (infarct) was made on the right side of the surface of the brain (cerebral cortex) by middle cerebral artery occlusion (MCAO). The right side of the head was shaved with electric clippers (patch of approx 3×5 cm between eye and ear). The region was carefully cleaned with septisol. Using aseptic technique, an incision was made midway between the eye and eardrum canal. The temporalis muscle was isolated, bisected, and reflected. A small window of bone was removed via drill and rongeurs (subtemporal craniectomy) to expose the middle cerebral artery (MCA). Care was taken not to remove the zygomatic arch or to transect the facial nerve that would impair the ability of the animal to chew after surgery. […] The MCA was then transected. The temporalis muscle was then repositioned, and the incision was closed subcutaneously with sutures. The skin incision was closed with surgical staples (2-3 required). Throughout the procedure, body temperature was maintained at 37.0°±1° C., using a self-regulating heating pad connected to a rectal thermometer. Dosing: Rats were treated in accordance with the dosing schedule shown in Tables 1A, 1B, and FIG. 2, with each Phase being a two week period of time. A solution of 4-AP was used in this experiment. Dosing was started at 4 weeks after ischemic event. Treatment groups: Dosing was started 4 weeks after pMCAO surgery. During these 4 weeks, weekly behavioral assessments, as defined below, were performed. Two dose levels of 4-AP plus vehicle control were assessed, with treatment starting at 4 weeks after ischemic event. All dosing was via gastric gavage, volume not to exceed 2 mL/kg. Animals were given the first dose and behavioral assessments were performed starting 60 minutes after dosing. Animals then received the second dose that day at the appropriate time and b.i.d (preferably every 12 hours) thereafter for 2 more days (3 total days of dosing, 5 total doses). One hour after the 5th dose, animals were subjected to behavioral assessments as defined below. Following the final behavioral assessment, drug was withdrawn for 10 or 11 days, behavior was re-assessed, and then animals were re-challenged with a cross-over treatment (Phase II of Table 1B) as described in Tables 1A, 1B, followed by the same behavioral testing and dosing regimen. This cross-over was repeated one more time as well (Phase III of Table 1B) (see FIG. 2). Behavioral test details: Behavioral evaluations were done by investigators blinded to treatment assignment. As described above, behavioral assessments were timed exactly with dosing times. Animals were given the first dose, behavioral assessments were performed starting 60 minutes later, and blood was collected 90 minutes after dosing. Animals then received the second dose that day at the appropriate time and b.i.d (preferably every 12 hours) thereafter for 2 more days (3 total days of dosing, 5 total doses). One hour after the 5th dose, animals were subjected to behavioral testing. […]

[2] = system: middle cerebral artery occlusion (MCAO) in rats; assay: Hindlimb placing test after MCAO; assay type: in vivo, Sprague Dawley rats; set-up: Hindlimb Placing Total Score, Mean: scale not given here
Description: as §1

[3] = system: middle cerebral artery occlusion (MCAO) in rats; assay: Cylinder test, overall limb-use asymmetry (%) after MCAO; assay type: in vivo, Sprague Dawley rats; details: for Cylinder Test Score (Overall Asymmetry (%)): individual animals
Description: as §1

[4] = system: patients with multiple sclerosis; details: p<0.05; cited from earlier work
[5] = Group I, Phase 1, D30, High 4-AP 2.0 mg/kg b.i.d. p.o., after first dose
[6] = Group I, Phase 1, D32, High 4-AP 2.0 mg/kg b.i.d. p.o., after 5th dose
[7] = Group I, Phase 2, D44, Low 4-AP 0.63 mg/kg b.i.d. p.o., after first dose
[8] = Group I, Phase 2, D46, Low 4-AP 0.63 mg/kg b.i.d. p.o., after 5th dose
[9] = group mean N=15, Group I, Phase 2, D44, Low 4-AP 0.63 mg/kg b.i.d. p.o., after first dose

SMILES: Nc1ccncc1 [4-AP, 4-aminopyridine]
- Forelimb Placing Total Score, Mean [1, 5]: 3.37
- Forelimb Placing Total Score, Mean [1, 6]: 2.43
- Forelimb Placing Total Score, Mean [1, 7]: 2.37
- Forelimb Placing Total Score, Mean [1, 8]: 2.03
- Forelimb Placing Total Score, Mean ([1]; Group II, Phase 1, D30, Low 4-AP 0.63 mg/kg b.i.d. p.o., after first dose): 4.20
- Forelimb Placing Total Score, Mean ([1]; Group II, Phase 1, D32, Low 4-AP 0.63 mg/kg b.i.d. p.o., after 5th dose): 3.43
- Forelimb Placing Total Score, Mean ([1]; Group II, Phase 3, D58, High 4-AP 2.0 mg/kg b.i.d. p.o., after first dose): 1.90
- Forelimb Placing Total Score, Mean ([1]; Group II, Phase 3, D60, High 4-AP 2.0 mg/kg b.i.d. p.o., after 5th dose): 1.17
- Forelimb Placing Total Score, Mean ([1]; Group III, Phase 2, D44, High 4-AP 2.0 mg/kg b.i.d. p.o., after first dose): 2.67
- Forelimb Placing Total Score, Mean ([1]; Group III, Phase 2, D46, High 4-AP 2.0 mg/kg b.i.d. p.o., after 5th dose): 1.33
- Forelimb Placing Total Score, Mean ([1]; Group III, Phase 3, D58, Low 4-AP 0.63 mg/kg b.i.d. p.o., after first dose): 2.00
- Forelimb Placing Total Score, Mean ([1]; Group III, Phase 3, D60, Low 4-AP 0.63 mg/kg b.i.d. p.o., after 5th dose): 1.80
- Forelimb Placing Total Score ([1]; Group I, Phase 1, D30 post-MCAO, High 4-AP 2.0 mg/kg b.i.d. p.o., 60 min after first dose): 4.50 (4×) and 3.50 (4×) and 4.00 and 5.50 and 3.00 (2×) and 0.50 and 1.00 and 1.50
- Forelimb Placing Total Score ([1]; Group I, Phase 1, D32, High 4-AP 2.0 mg/kg b.i.d. p.o., 1 h after 5th dose): 3.00 (4×) and 2.00 (3×) and 3.50 (3×) and 2.50 and 0.50 (3×) and 4.00
- Forelimb Placing Total Score ([1]; Group I, Phase 2, D44, Low 4-AP 0.63 mg/kg b.i.d. p.o., 60 min after first dose): 3.50 (2×) and 1.50 (2×) and 4.00 (4×) and 3.00 (2×) and 2.00 and 0.00 (2×) and 0.50 and 1.00
- Forelimb Placing Total Score ([1]; Group I, Phase 2, D46, Low 4-AP 0.63 mg/kg b.i.d. p.o., 1 h after 5th dose): 3.50 (2×) and 1.50 (3×) and 3.00 (3×) and 4.00 and 2.50 (2×) and 0.00 (3×) and 1.00
- Forelimb Placing Total Score ([1]; Group II, Phase 1, D30, Low 4-AP 0.63 mg/kg b.i.d. p.o., 60 min after first dose): 5.50 (3×) and 4.00 (2×) and 3.50 and 5.00 and 4.50 and 1.50 (2×)
- Forelimb Placing Total Score ([1]; Group II, Phase 1, D32, Low 4-AP 0.63 mg/kg b.i.d. p.o., 1 h after 5th dose): 5.50 and 2.00 (2×) and 4.00 and 5.00 and 3.50 and 4.50 and 1.00 (2×) and 3.00
- Forelimb Placing Total Score ([1]; Group II, Phase 3, D58, High 4-AP 2.0 mg/kg b.i.d. p.o., 60 min after first dose): 2.50 (2×) and 0.00 (3×) and 1.50 (2×) and 3.00 and 5.00 and 2.00
- Forelimb Placing Total Score ([1]; Group II, Phase 3, D60, High 4-AP 2.0 mg/kg b.i.d. p.o., 1 h after 5th dose): 1.00 (4×) and 0.00 (4×) and 1.50 and 3.50
- effect on forelimb function (forelimb placing test) ([1]; low or high dose, 4 weeks post ischemic brain injury, rats, dose-responsive, reversible): effective to improve forelimb function; also recorded: significant improvement
- Hindlimb Placing Total Score ([2]; Group II, D30, individual animals): 2.50 and 1.50 (4×) and 2.00 (3×) and 1.00 and 0.50
- Hindlimb Placing Total Score, Mean ([2]; Group II, D30, mean of N 15): 1.73
- Hindlimb Placing Total Score ([2]; Group II, D32, individual animals): 2.00 and 1.00 (3×) and 1.50 (5×) and 0.50
- Hindlimb Placing Total Score, Mean ([2]; Group II, D32, mean of N 15): 1.37
- Hindlimb Placing Total Score ([2]; Group II, D58, individual animals): 2.00 and 0.00 (4×) and 1.00 and 1.50 (3×) and 0.50
- Hindlimb Placing Total Score, Mean ([2]; Group II, D58, mean of N 15): 0.83
- Hindlimb Placing Total Score ([2]; Group II, D60, individual animals): 0.50 (3×) and 0.00 (6×) and 1.00
- Hindlimb Placing Total Score, Mean ([2]; Group II, D60, mean of N 15): 0.23
- Hindlimb Placing Total Score, Mean ([2]; Group III, D44, high dose phase (inferred), mean of N 15): 0.90
- Hindlimb Placing Total Score, Mean ([2]; Group III, D46, high dose phase (inferred), mean of N 15): 0.30
- Hindlimb Placing Total Score, Mean ([2]; Group III, D58, low dose phase (inferred), mean of N 15): 0.80
- Hindlimb Placing Total Score, Mean ([2]; Group III, D60, low dose phase (inferred), mean of N 15): 0.70
- Hindlimb Placing Total Score, Mean ([2]; group mean N=15, Group I, Phase 1, D30, High 4-AP 2.0 mg/kg b.i.d. p.o., after first dose): 1.67
- Hindlimb Placing Total Score, Mean ([2]; group mean N=15, Group I, Phase 1, D32, High 4-AP 2.0 mg/kg b.i.d. p.o., after 5th dose): 0.97
- Hindlimb Placing Total Score, Mean [2, 9]: 1.33
- Hindlimb Placing Total Score, Mean ([2]; group mean N=15, Group I, Phase 2, D46, Low 4-AP 0.63 mg/kg b.i.d. p.o., after 5th dose): 1.13
- Hindlimb Placing Total Score ([2]; individual animals, Group I, Phase 1, D30, High 4-AP 2.0 mg/kg b.i.d. p.o., 60 min after first dose, 0=normal, 6=maximally impaired): 1.50 (7×) and 3.00 (2×) and 2.50 (2×) and 2.00 and 1.00 and 0.00 and 0.50
- Hindlimb Placing Total Score ([2]; individual animals, Group I, Phase 1, D32, High 4-AP 2.0 mg/kg b.i.d. p.o., 1 h after 5th dose, 0=normal, 6=maximally impaired): 1.00 and 3.00 and 1.50 (6×) and 0.00 (4×) and 0.50 (3×)
- Hindlimb Placing Total Score ([2]; individual animals, Group I, Phase 2, D44, Low 4-AP 0.63 mg/kg b.i.d. p.o., 60 min after first dose, 0=normal, 6=maximally impaired): 2.00 (4×) and 3.00 and 1.50 (3×) and 0.50 (2×) and 0.00 (3×) and 2.50 and 1.00
- Hindlimb Placing Total Score ([2]; individual animals, Group I, Phase 2, D46, Low 4-AP 0.63 mg/kg b.i.d. p.o., 1 h after 5th dose, 0=normal, 6=maximally impaired): 2.00 (3×) and 3.00 and 1.50 (4×) and 0.00 (4×) and 0.50 (2×) and 1.00
- effect on hindlimb function (hindlimb placing test) ([2]; low or high dose, 4 weeks post ischemic brain injury, rats, dose responsive, reversible): effective to improve hindlimb function; also recorded: significant improvement
- Cylinder Test Score (Overall Asymmetry (%)), Mean ([3]; Group II, D30, first dosing phase (low dose, inferred)): 26.98%
- Cylinder Test Score (Overall Asymmetry (%)), Mean ([3]; Group II, D32, first dosing phase (low dose, inferred)): 23.50%
- Cylinder Test Score (Overall Asymmetry (%)), Mean ([3]; Group II, D58, third dosing phase (high dose, inferred), N 12): 35.52%
- Cylinder Test Score (Overall Asymmetry (%)), Mean ([3]; Group II, D60, third dosing phase (high dose, inferred), N 14): 4.43%
- Cylinder Test Score (Overall Asymmetry (%)), Mean ([3]; Group III, D44, second dosing phase (high dose, inferred), N 13): 27.98%
- Cylinder Test Score (Overall Asymmetry (%)), Mean ([3]; Group III, D46, second dosing phase (high dose, inferred), N 13): 10.17%
- Cylinder Test Score (Overall Asymmetry (%)), Mean ([3]; Group III, D58, third dosing phase (low dose, inferred)): 12.32%
- Cylinder Test Score (Overall Asymmetry (%)), Mean ([3]; Group III, D60, third dosing phase (low dose, inferred)): 3.23%
- Cylinder Test Score (Overall Asymmetry (%)), Mean ([3]; group mean N=10, Group I, Phase 1, D30, High 4-AP 2.0 mg/kg b.i.d. p.o., after first dose): 17.78%
- Cylinder Test Score (Overall Asymmetry (%)), Mean ([3]; group mean N=13, Group I, Phase 1, D32, High 4-AP 2.0 mg/kg b.i.d. p.o., after 5th dose): −15.95%
- Cylinder Test Score (Overall Asymmetry (%)), Mean ([3]; group mean N=13, Group I, Phase 2, D46, Low 4-AP 0.63 mg/kg b.i.d. p.o., after 5th dose): 16.29%
- Cylinder Test Score (Overall Asymmetry (%)), Mean [3, 9]: 10.38%
- Cylinder Test Score (Overall Asymmetry (%)) [3, 5]: 9.33% and 0.00% and 50.00% (3×) and 16.67% and 38.46% and −16.67% and −100.00% and 80.00%
- Cylinder Test Score (Overall Asymmetry (%)) [3, 6]: 36.36% and 24.07% and 22.73% and 5.13% and −30.00% and −100.00% (2×) and 50.00% (2×) and −60.00% and −65.79% and 16.67% and −56.52%
- Cylinder Test Score (Overall Asymmetry (%)) [3, 7]: 60.71% and 25.81% and 39.58% and 22.81% and 31.91% and 33.33% (2×) and 39.02% and −45.45% and −60.00% and −56.06% and 40.00% and 9.30% and 10.00% and −28.57%
- Cylinder Test Score (Overall Asymmetry (%)) [3, 8]: 63.64% and 14.89% and 30.23% and 33.33% (3×) and 36.96% and −8.33% (2×) and 25.00% and −100.00% and 50.00% and 7.69%
- effect on body symmetry and coordination (cylinder test) ([3]; rats after MCAO, reversible and dose-dependent): effective to improve the asymmetry in limb usage
- leg strength (LEMMT) relative to placebo [4]: statistically significantly improved
